A word on the Kd: it is the constant that tells how readily two partners part at equilibrium. Read a high Kd as weaker binding.

For the assay, the target named is T1, JAK2 (JH1domain-catalytic, Y1007F,Y1008F) kinase (Homo sapiens, UniProt O60674, Y1007F/Y1008F).
T1 construct: JAK2 (JH1domain-catalytic, Y1007F,Y1008F) kinase was expressed as N-terminal fusion; made in house; host or cells: transiently transfected HEK293 cells
As to the kind of experiment: JAK2 JH1 Domain Binding Assay. The settings on record: qPCR readout. (In general: Quantitative PCR measures a nucleic acid by following its amplification.)

T1 sequence (O60674 849-1124 Y1007F/Y1008F limits assumed): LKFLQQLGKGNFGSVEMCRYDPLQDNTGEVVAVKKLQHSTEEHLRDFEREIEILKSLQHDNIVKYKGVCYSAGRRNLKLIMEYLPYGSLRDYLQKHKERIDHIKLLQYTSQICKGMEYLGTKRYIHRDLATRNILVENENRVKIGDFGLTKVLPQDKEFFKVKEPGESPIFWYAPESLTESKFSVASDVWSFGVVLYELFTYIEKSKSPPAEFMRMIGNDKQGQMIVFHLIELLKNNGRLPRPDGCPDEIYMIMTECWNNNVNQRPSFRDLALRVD

For the compound `Cn1c(Nc2cc(C3CC3)cn([C@H]3C[C@H](C#N)C3)c2=O)nc2ncc(Oc3cnn4ccncc34)c(Cl)c21` [Example I-77, trans-3-(3-((7-chloro-1-methyl-6-(pyrazolo[1,5-a]pyrazin-3-yloxy)-1H-imidazo[4,5-b]pyridin-2-yl)amino)-5-cyclopropyl-2-oxopyridin-1(2H)-yl)cyclobutane-1-carbonitrile], the Kd was less than 10 nM.

In turn, `CCn1c(C(C)(C)C)ncc(Nc2nc3ncc(Oc4cnn5ccncc45)c(Cl)c3n2C)c1=O` [Example I-164, 2-(tert-butyl)-5-((7-chloro-1-methyl-6-(pyrazolo[1,5-a]pyrazin-3-yloxy)-1H-imidazo[4,5-b]pyridin-2-yl)amino)-3-ethylpyrimidin-4(3H)-one] yielded a Kd of 10 to 50 nM.

In turn, `COCCOc1ccc2c(Oc3cnc4nc(Nc5cc(C(F)(F)F)cn(C)c5=O)n(C)c4c3Cl)cnn2c1` [Example I-355, 3-((7-chloro-6-((6-(2-methoxyethoxy)pyrazolo[1,5-a]pyridin-3-yl)oxy)-1-methyl-1H-imidazo[4,5-b]pyridin-2-yl)amino)-1-methyl-5-(trifluoromethyl)pyridin-2(1H)-one] returned a Kd of less than 10 nM.

With `Cn1c(Nc2cc(C(F)(F)F)cn(CCCN3CCCC(F)(F)C3)c2=O)nc2ncc(Oc3cnn4ccncc34)c(Cl)c21` [Example I-138, 3-((7-chloro-1-methyl-6-(pyrazolo[1,5-a]pyrazin-3-yloxy)-1H-imidazo[4,5-b]pyridin-2-yl)amino)-1-(3-(3,3-difluoropiperidin-1-yl)propyl)-5-(trifluoromethyl)pyridin-2(1H)-one], the Kd was in the range of 10 to 50 nM.

As to `CN1CC[C@@H](n2nc(Nc3nc4ncc(Oc5cnc6scnc6c5)c(C(F)F)c4n3C)cc2C(C)(C)C)C1` [Example I-40, (R)—N-(5-(tert-butyl)-1-(1-methylpyrrolidin-3-yl)-1H-pyrazol-3-yl)-7-(difluoromethyl)-1-methyl-6-(thiazolo[5,4-b]pyridin-6-yloxy)-1H-imidazo[4,5-b]pyridin-2-amine], the Kd is 10 to 50 nM.

Turning to `Cn1c(Nc2cc(C3CC3)cn(C3CC4(COC4)C3)c2=O)nc2ncc(Oc3cnn4ccncc34)c(Cl)c21` [Example I-85, 3-((7-chloro-1-methyl-6-(pyrazolo[1,5-a]pyrazin-3-yloxy)-1H-imidazo[4,5-b]pyridin-2-yl)amino)-5-cyclopropyl-1-(2-oxaspiro[3.3]heptan-6-yl)pyridin-2(1H)-one], the equilibrium dissociation constant (Kd) is less than 10 nM.

As for `Cn1c(Nc2cc(C3CC3)cn([C@H]3C[C@@H](O)C3)c2=O)nc2ncc(Oc3cnn4ccncc34)c(Cl)c21` [Example I-70, 3-((7-chloro-1-methyl-6-(pyrazolo[1,5-a]pyrazin-3-yloxy)-1H-imidazo[4,5-b]pyridin-2-yl)amino)-5-cyclopropyl-1-((1s,3s)-3-hydroxycyclobutyl)pyridin-2(1H)-one], the Kd is less than 10 nM.

Consider `Cn1c(Nc2cc(C(C)(C)C)n([C@@H]3CC[C@@H]3O)n2)nc2ncc(Oc3cnn4ccncc34)c(Cl)c21` (single isomer, unassigned) [Example I-147-b], for which the Kd is less than 10 nM.

The compound `Cn1c(Nc2cc(C3CC3)cn(CCO)c2=O)nc2ncc(Oc3cnn4cccc(F)c34)c(Cl)c21` [Example I-141, 3-((7-chloro-6-((4-fluoropyrazolo[1,5-a]pyridin-3-yl)oxy)-1-methyl-1H-imidazo[4,5-b]pyridin-2-yl)amino)-5-cyclopropyl-1-(2-hydroxyethyl)pyridin-2(1H)-one] displayed a Kd of less than 10 nM.

`CNc1nccn2ncc(Oc3cnc4nc(Nc5cc(C(F)(F)F)cn(C)c5=O)n(C)c4c3)c12` [Example I-221, 1-methyl-3-((1-methyl-6-((4-(methylamino)pyrazolo[1,5-a]pyrazin-3-yl)oxy)-1H-imidazo[4,5-b]pyridin-2-yl)amino)-5-(trifluoromethyl)pyridin-2(1H)-one] had a dissociation constant (Kd) of 10 to 50 nM.

As to `COCCOc1nccn2ncc(Oc3cnc4nc(Nc5cc(C(F)(F)F)n(C6CC7(COC7)C6)n5)n(C)c4c3Cl)c12` [Example I-273, N-(1-(2-oxaspiro[3.3]heptan-6-yl)-5-(trifluoromethyl)-1H-pyrazol-3-yl)-7-chloro-6-((4-(2-methoxyethoxy)pyrazolo[1,5-a]pyrazin-3-yl)oxy)-1-methyl-1H-imidazo[4,5-b]pyridin-2-amine], the Kd lay within 10 to 50 nM.

The compound `CNc1cn2ncc(Oc3cnc4nc(Nc5cc(C(F)(F)F)cn(C(C)C)c5=O)n(C)c4c3Cl)c2cn1` [Example I-313, 3-((7-chloro-1-methyl-6-((6-(methylamino)pyrazolo[1,5-a]pyrazin-3-yl)oxy)-1H-imidazo[4,5-b]pyridin-2-yl)amino)-1-isopropyl-5-(trifluoromethyl)pyridin-2(1H)-one] returned an equilibrium dissociation constant (Kd) of less than 10 nM.

`Cc1nc(Nc2nc3ncc(Oc4cnn5ccncc45)c(Cl)c3n2C)nc(C)c1C1CCCC1` [Example I-253, 7-chloro-N-(5-cyclopentyl-4,6-dimethylpyrimidin-2-yl)-1-methyl-6-(pyrazolo[1,5-a]pyrazin-3-yloxy)-1H-imidazo[4,5-b]pyridin-2-amine] returned a Kd of less than 10 nM.

Consider `CNc1cn2ncc(Oc3cnc4nc(Nc5cc([C@H]6CCCN6C)cc(C(F)(F)F)c5)n(C)c4c3Cl)c2cn1` (single isomer, unassigned) [Example I-359-a], for which the Kd fell in the range of 50 to 1000 nM.

`Cn1cc(C(F)(F)F)cc(Nc2nc3ncc(Oc4cnn5ccnc(OCCN6CCOCC6)c45)c(Cl)c3n2C)c1=O` [Example I-127, 3-((7-chloro-1-methyl-6-((4-(2-morpholinoethoxy)pyrazolo[1,5-a]pyrazin-3-yl)oxy)-1H-imidazo[4,5-b]pyridin-2-yl)amino)-1-methyl-5-(trifluoromethyl)pyridin-2(1H)-one] yielded a Kd of 10 to 50 nM.

In turn, `Cn1c(Nc2cc(C(C)(C)C)n(C3CC4(COC4)C3)n2)nc2ncc(Oc3cnc4ccnn4c3)c(Cl)c21` [Example I-42, N-(5-(tert-butyl)-1-(2-oxaspiro[3.3]heptan-6-yl)-1H-pyrazol-3-yl)-7-chloro-1-methyl-6-(pyrazolo[1,5-a]pyrimidin-6-yloxy)-1H-imidazo[4,5-b]pyridin-2-amine] yielded a Kd of 10 to 50 nM.

With `COc1c(Oc2cnn3ccncc23)cnc2nc(Nc3cc(C(C)(C)C)n([C@H]4CCN(CCF)C4)n3)n(C)c12` [Example I-50, (S)—N-(5-(tert-butyl)-1-(1-(2-fluoroethyl)pyrrolidin-3-yl)-1H-pyrazol-3-yl)-7-methoxy-1-methyl-6-(pyrazolo[1,5-a]pyrazin-3-yloxy)-1H-imidazo[4,5-b]pyridin-2-amine], the Kd was 10 to 50 nM.

On to `COCc1c[nH]c2ncc(Oc3cnc4nc(Nc5cc(C(C)(C)C)n([C@H]6CCOC6)n5)n(C)c4c3)cc12` [Example I-12], for which the Kd is less than 10 nM.

`Cn1c(Nc2cc(CN3CCC(F)(F)C3)cc(C(F)(F)F)c2)nc2ncc(Oc3cnn4ccncc34)c(Cl)c21` [Example I-197, 7-chloro-N-(3-((3,3-difluoropyrrolidin-1-yl)methyl)-5-(trifluoromethyl)phenyl)-1-methyl-6-(pyrazolo[1,5-a]pyrazin-3-yloxy)-1H-imidazo[4,5-b]pyridin-2-amine] yielded an equilibrium dissociation constant (Kd) of less than 10 nM.

As to `Cn1c(Nc2cc(C(C)(C)C)n([C@@H]3COC[C@H]3O)n2)nc2ncc(Oc3cnc4cnc(C5CC5)n4c3)c(Cl)c21` (single isomer, unassigned) [Example I-76-b], the dissociation constant (Kd) lay in the range of 10 to 50 nM.

As for `Cn1cc(C(F)(F)F)cc(Nc2nc3ncc(Oc4cnn5ccncc45)c(Cl)c3n2C)c1=O` [Example I-177, 3-((7-chloro-1-methyl-6-(pyrazolo[1,5-a]pyrazin-3-yloxy)-1H-imidazo[4,5-b]pyridin-2-yl)amino)-1-methyl-5-(trifluoromethyl)pyridin-2(1H)-one], the Kd was less than 10 nM.

As to `Cn1c(Nc2cc(C(F)(F)F)cn([C@H]3C[C@H](O)C3)c2=O)nc2ncc(Oc3cnn4cccc(F)c34)c(C#N)c21` [Example I-297, trans-6-((4-fluoropyrazolo[1,5-a]pyridin-3-yl)oxy)-2-((1-(3-hydroxycyclobutyl)-2-oxo-5-(trifluoromethyl)-1,2-dihydropyridin-3-yl)amino)-1-methyl-1H-imidazo[4,5-b]pyridine-7-carbonitrile], the dissociation constant Kd is less than 10 nM.

With `Cn1c(Nc2cc(C(F)(F)F)cn(CCO)c2=O)nc2ncc(Oc3cnn4ccccc34)c(C#N)c21` [Example I-160, 2-((1-(2-hydroxyethyl)-2-oxo-5-(trifluoromethyl)-1,2-dihydropyridin-3-yl)amino)-1-methyl-6-(pyrazolo[1,5-a]pyridin-3-yloxy)-1H-imidazo[4,5-b]pyridine-7-carbonitrile], the Kd is less than 10 nM.

`CN1CCN(Cc2ccc(Nc3nc4ncc(Oc5cnn6ccncc56)c(Cl)c4n3C)cc2C(F)(F)F)CC1` [Example I-120, 7-chloro-1-methyl-N-(4-((4-methylpiperazin-1-yl)methyl)-3-(trifluoromethyl)phenyl)-6-(pyrazolo[1,5-a]pyrazin-3-yloxy)-1H-imidazo[4,5-b]pyridin-2-amine] registered a Kd of less than 10 nM.
